Data from patent US7803811B2, “1,2,3-substituted indolizine derivatives, inhibitors of FGFs, method for preparing them and pharmaceutical compositions containing them” (Sanofi-Aventis, priority 2002, dated 2010).

COc1cc(C(=O)c2c(C)c(OCCO)c3ccccn23)ccc1[N+](=O)[O-] [Example 80, [1-(2-Hydroxyethoxy)-2-methylindolizin-3-yl](3-methoxy-4-nitrophenyl)methanone]
melting point: 142 °C
